Data as given in patent publication US10959432B2, “Microbiocidal oxadiazole derivatives” (Syngenta Participations AG, priority 2016, dated 2021).

Tests used:
[1] = tested on: Puccinia recondita f. sp. tritici; experiment: Fungicidal activity against Puccinia recondita f. sp. tritici / wheat / leaf disc curative (brown rust); assay type: in vivo; details: foliar, 200 ppm in the applied formulation, wheat leaf segments cv. Kanzler, curative (applied 1 day after inoculation), assessed 6 to 8 days after application, read-out: disease control compared to untreated control leaf disks
Experimental: (§1) Leaf disks or leaf segments of various plant species are cut from plants grown in a greenhouse. The cut leaf disks or segments are placed in multiwell plates (24-well format) onto water agar. The leaf disks are sprayed with a test solution before (preventative) or after (curative) inoculation. Compounds to be tested are prepared as DMSO solutions (max. 10 mg/ml) which are diluted to the appropriate concentration with 0.025% Tween20 just before spraying. The inoculated leaf disks or segments are incubated under defined conditions (temperature, relative humidity, light, etc.) according to the respective test system. A single evaluation of disease level is carried out 3 to 14 days after inoculation, depending on the pathosystem. Percent disease control relative to the untreated check leaf disks or segments is then calculated. General Examples of Liquid Culture Tests in Well Plates:
Example 2: Fungicidal Activity Against Puccinia recondita f. sp. Tritici/Wheat/Leaf Disc Curative (Brown Rust)
Wheat leaf segments cv. Kanzler are placed on agar in multiwell plates (24-well format). The leaf segments are then inoculated with a spore suspension of the fungus. Plates were stored in darkness at 19° C. and 75% relative humidity. The formulated test compound diluted in water was applied 1 day after inoculation. The leaf segments were incubated at 19° C. and 75% relative humidity under a light regime of 12 hours light/12 hours darkness in a climate cabinet and the activity of a compound was assessed as percent disease control compared to untreated when an appropriate level of disease damage appears in untreated check leaf segments (6 to 8 days after application).
(§2) The following compounds at 200 ppm in the applied formulation give at least 80% disease control in this test when compared to untreated control leaf disks under the same conditions, which show extensive disease development.

[2] = tested on: Puccinia recondita f. sp. tritici; experiment: Fungicidal activity against Puccinia recondita f. sp. tritici / wheat / leaf disc preventative (brown rust); assay type: in vivo; details: foliar, 200 ppm in the applied formulation, wheat leaf segments cv. Kanzler, preventative (inoculated 1 day after application), assessed 7 to 9 days after application, read-out: disease control compared to untreated control leaf disks
Experimental: as §1
Example 1: Fungicidal Activity Against Puccinia recondita f. sp. tritici/Wheat/Leaf Disc Preventative (Brown Rust)
Wheat leaf segments cv. Kanzler were placed on agar in multiwell plates (24-well format) and sprayed with the formulated test compound diluted in water. The leaf disks were inoculated with a spore suspension of the fungus 1 day after application. The inoculated leaf segments were incubated at 19C and 75% relative humidity (rh) under a light regime of 12 hours light/12 hours darkness in a climate cabinet and the activity of a compound was assessed as percent disease control compared to untreated when an appropriate level of disease damage appears in untreated check leaf segments (7 to 9 days after application).
as §2

[3] = tested on: Phakopsora pachyrhizi; experiment: Fungicidal activity against Phakopsora pachyrhizi / soybean / leaf disc preventative (Asian soybean rust); assay type: in vivo; details: foliar, 200 ppm in the applied formulation, soybean leaf disks, preventative (inoculated one day after application), assessed 12 to 14 days after application, read-out: disease control compared to untreated control leaf disks
Experimental: as §1
Example 3: Fungicidal Activity Against Phakopsora pachyrhizi/Soybean/Leaf Disc Preventative (Asian Soybean Rust)
Soybean leaf disks are placed on water agar in multiwell plates (24-well format) and sprayed with the formulated test compound diluted in water. One day after application leaf discs are inoculated by spraying a spore suspension on the lower leaf surface. After an incubation period in a climate cabinet of 24-36 hours in darkness at 20° C. and 75% rh leaf disc are kept at 20° C. with 12 h light/day and 75% rh. The activity of a compound is assessed as percent disease control compared to untreated when an appropriate level of disease damage appears in untreated check leaf disks (12 to 14 days after application).
as §2

[4] = tested on: Glomerella laqenarium (Colletotrichum lagenarium); experiment: Fungicidal activity against Glomerella lagenarium (Colletotrichum lagenarium) liquid culture / cucumber / preventative (anthracnose); assay type: cell-based; details: Colletotrichum orbiculare; 20 ppm in the applied formulation; liquid culture in PDB, 24° C., 3 to 4 days after application; read-out: disease control compared to untreated control (inhibition of growth measured photometrically)
Experimental: Mycelia fragments or conidia suspensions of a fungus prepared either freshly from liquid cultures of the fungus or from cryogenic storage, are directly mixed into nutrient broth. DMSO solutions of the test compound (max. 10 mg/ml) are diluted with 0.025% Tween20 by a factor of 50 and 10 μl of this solution is pipetted into a microtiter plate (96-well format). The nutrient broth containing the fungal spores/mycelia fragments is then added to give an end concentration of the tested compound. The test plates are incubated in the dark at 24° C. and 96% relative humidity. The inhibition of fungal growth is determined photometrically after 2 to 7 days, depending on the pathosystem, and percent antifungal activity relative to the untreated check is calculated.
Example 4: Fungicidal Activity Against Glomerella laqenarium (Colletotrichum lagenarium) Liquid Culture/Cucumber/Preventative (Anthracnose)
Conidia of the fungus from cryogenic storage are directly mixed into nutrient broth (PDB—potato dextrose broth). After placing a (DMSO) solution of test compound into a microtiter plate (96-well format), the nutrient broth containing the fungal spores is added. The test plates are incubated at 24° C. and the inhibition of growth is measured photometrically 3 to 4 days after application.
The following compounds at 20 ppm in the applied formulation give at least 80% disease control in this test when compared to untreated control under the same conditions, which show extensive disease development.

CC(C#N)(NC(=O)c1ccc(-c2noc(C(F)(F)F)n2)cc1F)C1CC1 (centres unmarked) [Compound 2b.9, N-(1-cyano-1-cyclopropyl-ethyl)-2-fluoro-4-[5-(trifluoromethyl)-1,2,4-oxadiazol-3-yl]benzamide]
≥ 80%: pest or weed control at 200 ppm [1] | pest or weed control at 200 ppm [2] | pest or weed control at 200 ppm [3]

O=C(NCC1CC1)c1ccc(-c2noc(C(F)(F)F)n2)cc1Cl [Compound 2b.13, 2-chloro-N-(cyclopropyl-methyl)-4-[5-(trifluoromethyl)-1,2,4-oxadiazol-3-yl]benzamide]
≥ 80%: pest or weed control at 200 ppm [1] | inhibition at 20 ppm [4] | pest or weed control at 200 ppm [2] | pest or weed control at 200 ppm [3]

CCC(C)NC(=O)c1ccc(-c2noc(C(F)(F)F)n2)cc1 (centres unmarked) [Compound 3a.7, N-sec-butyl-4-[5-(trifluoromethyl)-1,2,4-oxadiazol-3-yl]benzamide]
≥ 80%: pest or weed control at 200 ppm [1] | inhibition at 20 ppm [4] | pest or weed control at 200 ppm [2] | pest or weed control at 200 ppm [3]

CCC(COC)NC(=O)c1ccc(-c2noc(C(F)(F)F)n2)cc1 (centres unmarked) [Compound 3a.9, N-[1-(methoxymethyl)propyl]-4-[5-(trifluoromethyl)-1,2,4-oxadiazol-3-yl]benzamide]
≥ 80%: pest or weed control at 200 ppm [1] | inhibition at 20 ppm [4] | pest or weed control at 200 ppm [2] | pest or weed control at 200 ppm [3]

CC(O)CNC(=O)c1ccc(-c2noc(C(F)(F)F)n2)cc1 (centres unmarked) [Compound 3a.10, N-(2-hydroxypropyl)-4-[5-(trifluoromethyl)-1,2,4-oxadiazol-3-yl]benzamide]
≥ 80%: pest or weed control at 200 ppm [1] | inhibition at 20 ppm [4] | pest or weed control at 200 ppm [2] | pest or weed control at 200 ppm [3]

CCOC(C)CNC(=O)c1ccc(-c2noc(C(F)(F)F)n2)cc1 (centres unmarked) [Compound 3a.11, N-(2-ethoxypropyl)-4-[5-(trifluoromethyl)-1,2,4-oxadiazol-3-yl]benzamide]
≥ 80%: pest or weed control at 200 ppm [1] | inhibition at 20 ppm [4] | pest or weed control at 200 ppm [2] | pest or weed control at 200 ppm [3]

COCCN(C(=O)c1ccc(-c2noc(C(F)(F)F)n2)cc1)C(C)C [Compound 3a.12, N-isopropyl-N-(2-methoxyethyl)-4-[5-(trifluoromethyl)-1,2,4-oxadiazol-3-yl]benzamide]
≥ 80%: pest or weed control at 200 ppm [1] | inhibition at 20 ppm [4] | pest or weed control at 200 ppm [2] | pest or weed control at 200 ppm [3]

CC(C)CN(C)C(=O)c1ccc(-c2noc(C(F)(F)F)n2)cc1 [Compound 3a.13, N-isobutyl-N-methyl-4-[5-(trifluoromethyl)-1,2,4-oxadiazol-3-yl]benzamide]
≥ 80%: pest or weed control at 200 ppm [1] | inhibition at 20 ppm [4] | pest or weed control at 200 ppm [2] | pest or weed control at 200 ppm [3]

CCC(O)CNC(=O)c1ccc(-c2noc(C(F)(F)F)n2)cc1 (centres unmarked) [Compound 3a.14, N-(2-hydroxybutyl)-4-[5-(trifluoromethyl)-1,2,4-oxadiazol-3-yl]benzamide]
≥ 80%: pest or weed control at 200 ppm [1] | inhibition at 20 ppm [4] | pest or weed control at 200 ppm [2] | pest or weed control at 200 ppm [3]

CC(=O)CC(C)(C)NC(=O)c1ccc(-c2noc(C(F)(F)F)n2)cc1 [Compound 3a.16, N-(1,1-dimethyl-3-oxo-butyl)-4-[5-(trifluoromethyl)-1,2,4-oxadiazol-3-yl]benzamide]
≥ 80%: pest or weed control at 200 ppm [1] | inhibition at 20 ppm [4] | pest or weed control at 200 ppm [2] | pest or weed control at 200 ppm [3]

CC(C)C(CO)NC(=O)c1ccc(-c2noc(C(F)(F)F)n2)cc1 (centres unmarked) [Compound 3a.18, N-[1-(hydroxymethyl)-2-methyl-propyl]-4-[5-(trifluoromethyl)-1,2,4-oxadiazol-3-yl]benzamide]
≥ 80%: pest or weed control at 200 ppm [1] | inhibition at 20 ppm [4] | pest or weed control at 200 ppm [3]

O=C(NCCCCCl)c1ccc(-c2noc(C(F)(F)F)n2)cc1 [Compound 3a.20, N-(4-chlorobutyl)-4-[5-(trifluoromethyl)-1,2,4-oxadiazol-3-yl]benzamide]
≥ 80%: pest or weed control at 200 ppm [1] | inhibition at 20 ppm [4] | pest or weed control at 200 ppm [2] | pest or weed control at 200 ppm [3]

CC(CCO)NC(=O)c1ccc(-c2noc(C(F)(F)F)n2)cc1F (centres unmarked) [Compound 3b.17, 2-fluoro-N-(3-hydroxy-1-methyl-propyl)-4-[5-(trifluoromethyl)-1,2,4-oxadiazol-3-yl]benzamide]
≥ 80%: pest or weed control at 200 ppm [1] | pest or weed control at 200 ppm [3]

CC(C)C(CO)NC(=O)c1ccc(-c2noc(C(F)(F)F)n2)cc1F (centres unmarked) [Compound 3b.18, 2-fluoro-N-[1-(hydroxymethyl)-2-methyl-propyl]-4-[5-(trifluoromethyl)-1,2,4-oxadiazol-3-yl]benzamide]
≥ 80%: pest or weed control at 200 ppm [1] | inhibition at 20 ppm [4]

O=C(NCCCO)c1ccc(-c2noc(C(F)(F)F)n2)cc1F [Compound 3b.23, 2-fluoro-N-(3-hydroxypropyl)-4-[5-(trifluoromethyl)-1,2,4-oxadiazol-3-yl]benzamide]
≥ 80%: pest or weed control at 200 ppm [1] | inhibition at 20 ppm [4] | pest or weed control at 200 ppm [3]

CCOC(=O)CC(C)NC(=O)c1ccc(-c2noc(C(F)(F)F)n2)cc1F (centres unmarked) [Compound 3b.28, ethyl 3-[[2-fluoro-4-[5-(trifluoromethyl)-1,2,4-oxadiazol-3-yl]benzoyl]amino]butanoate]
≥ 80%: pest or weed control at 200 ppm [1] | inhibition at 20 ppm [4] | pest or weed control at 200 ppm [2]

CCCCCCNC(=O)c1ccc(-c2noc(C(F)(F)F)n2)cc1F [Compound 3b.31, 2-fluoro-N-hexyl-4-[5-(trifluoromethyl)-1,2,4-oxadiazol-3-yl]benzamide]
≥ 80%: pest or weed control at 200 ppm [1] | inhibition at 20 ppm [4] | pest or weed control at 200 ppm [3]

CN(C(=O)c1ccc(-c2noc(C(F)(F)F)n2)cc1)c1ccccn1 [Compound 5a.4, N-methyl-N-(2-pyridyl)-4-[5-(trifluoromethyl)-1,2,4-oxadiazol-3-yl]benzamide]
≥ 80%: pest or weed control at 200 ppm [1] | inhibition at 20 ppm [4] | pest or weed control at 200 ppm [3]
